Where a name gives a salt, the structure may show the parent alone. Where only a bound is given, the exact number is not on record here.

The assay addresses T1, mouse glycolate oxidase (mGO) (Mus musculus, UniProt Q9WU19).
T1 construct: His6 (N); made in house; host or cells: E. coli BL21 (DE3)
T1 sequence (Q9WU19 1-370): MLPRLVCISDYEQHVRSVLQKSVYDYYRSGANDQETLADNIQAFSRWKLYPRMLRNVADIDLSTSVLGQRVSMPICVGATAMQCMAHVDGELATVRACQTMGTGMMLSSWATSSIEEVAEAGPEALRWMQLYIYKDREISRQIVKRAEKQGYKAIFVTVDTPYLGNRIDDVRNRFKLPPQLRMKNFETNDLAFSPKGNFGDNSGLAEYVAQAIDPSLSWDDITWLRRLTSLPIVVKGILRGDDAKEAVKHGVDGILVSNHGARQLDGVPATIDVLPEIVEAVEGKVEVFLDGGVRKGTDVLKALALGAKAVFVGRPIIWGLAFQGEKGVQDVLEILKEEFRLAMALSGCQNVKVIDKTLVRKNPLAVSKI
The assay is described as follows: In vitro inhibition of mouse glycolate oxidase (mGO), HRP-coupled Trinder reaction. The format is biochemical. The following applies: compound tested at 100 μM; 40 mM glycolic acid as substrate; activity calculated at 1 minute. As for the experimental part:
Protein expression. BL21 (DE3) E. coli transformed with recombinant pET-15b expression vector containing mouse Hao1 cDNA with an N-terminal His6 tag was grown in LB medium in the presence of 0.1 mg/mL ampicillin. For purification of recombinant mGO expressed in BL21 E. coli, bacteria pellets were thawed and re-suspended in 2 mL lysis buffer (50 mM NaH2PO4, 300 mM NaCl, 10 mM imidazole, 50 μM flavin mononucleotide (FMN), pH 7.5), and then treated for 30 minutes with 1 mM phenylmethylsulfonyl fluoride (PMSF) for protease inhibition, 0.1% Triton X-100 and 0.2 mg/mL lysozyme to break cellular membranes. After sonication, cells were centrifuged and the supernatant containing the total cellular extract (pre-column fraction) was loaded into a Ni-NTA agarose column, and incubated for 30 minutes at 4° C. to allow binding. The column was washed with two bed volumes of lysis buffer with 20 mM imidazole to eliminate unbound proteins (wash fraction). mGO was eluted using the same buffer containing 300 mM imidazole. Fractions containing purified GO were dialyzed against 300 mL of dialysis buffer (50 mM NaH2PO4, 300 mM NaCl, pH 7.5) at 4° C. with agitation overnight, and then kept at 4° C. in darkness. Protein was quantified by the bicinchoninic acid (BCA) assay.
Inhibition assays. Enzymatic activity of mGO was determined in the presence of glycolate as substrate (40 mM glycolic acid) and phosphate buffer (50 mM KPO4, 0.1 mM EDTA, pH 7). The production of glyoxylate was indirectly measured by the quantification of hydrogen peroxide formed during the first oxidation reaction. This hydrogen peroxide reacted with 4.9 mM 4-aminoantipyrine and 0.1 mM sulphonated […] in a coupled horseradish peroxidase (HRP) reaction that yields a quinoneimine dye (FIG. 1) measured at 515 nm (Trinder reaction). Enzymatic activity was calculated at 1 minute after initiation of the Trinder reaction.
One may read the inhibition as the drop in the measured response relative to a control, in per cent. For the compound `Cc1[nH]nc(C(=O)O)c1Cc1ccc(Oc2ccccc2)cc1` [Compound 10, 5-Methyl-4-(4-phenoxybenzyl)-1H-pyrazole-3-carboxylic Acid], the inhibition at 100 µM is 30 to 60%.
As for `O=C(O)c1nnccc1NCc1ccc(F)cc1` [Compound 50, sodium salt, 4-((4-Fluorobenzyl)amino)pyridazine-3-carboxylic Acid, sodium Salt], the inhibition at 100 µM is below 30%.
On to `Cc1[nH]nc(C(=O)O)c1Nc1ccc(Cc2ccc(OCCC3CCNCC3)cc2)cc1` [Compound 62, 5-methyl-4-((4-(4-(2-(piperidin-4-yl)ethoxy)benzyl)phenyl)amino)-1H-pyrazole-3-carboxylic Acid hydrochloride], for which the inhibition at 100 µM is below 30%.
With `Cc1snc(C(=O)O)c1Nc1ccc(Br)cc1` [Compound 34, 4-((4-Bromophenyl)amino)-5-methylisothiazole-3-carboxylic Acid] the figure was 30 to 60%.
With `Cc1onc(C(=O)O)c1NCc1ccc(F)cc1` [Compound 29, 4-((4-Fluorobenzyl)amino)-5-methylisoxazole-3-carboxylic Acid] the figure was 30 to 60%.
The figure for `Cc1onc(C(=O)O)c1Nc1ccc(Oc2ccc(C#N)cc2)cc1` [Compound 53, 4-((4-(4-cyanophenoxy)phenyl)amino)-5-methylisoxazole-3-carboxylic Acid] is 30 to 60%.
Turning to `Cc1[nH]nc(C(=O)O)c1Nc1ccc(Br)cc1` [Compound 40, 4-((4-Bromophenyl)amino)-5-methyl-1H-pyrazole-3-carboxylic Acid], the inhibition at 100 µM was below 30%.
The figure for `Cc1snc(C(=O)O)c1NCc1ccc(F)cc1` [Compound 37, 4-((4-Fluorobenzyl)amino)-5-methylisothiazole-3-carboxylic Acid] is 30 to 60%; for `CC(C)(C)OC(=O)N1CCN(CCOc2ccc(Cc3ccc(Nc4ccnnc4C(=O)O)cc3)cc2)CC1` [Compound 72 Na salt, 4-((4-(4-(2-(4-(tert-Butoxycarbonyl)piperazin-1-yl)ethoxy)-benzyl)phenyl)amino)pyridazine-3-carboxylic Acid Sodium Salt] it is above 60%.
The figure for `O=C(O)c1nnsc1Nc1ccc(Br)cc1` [Compound 24, 5-((4-Bromophenyl)amino)-1,2,3-thiadiazole-4-carboxylic Acid] is above 60%.
With `CCCCCC(Sc1c(C(=O)O)noc1C)c1ccc(F)cc1` (stereo not shown) [Compound 75, 4-((1-(4-fluorophenyl)hexyl)thio)-5-methylisoxazole-3-carboxylic Acid] the figure was 30 to 60%; with `Cc1[nH]nc(C(=O)O)c1Cc1ccc(F)cc1` [Compound 12, 5-Methyl-4-(4-fluorobenzyl) 1H-pyrazole-3-carboxylic Acid], below 30%.
As for `Cc1[nH]nc(C(=O)O)c1Nc1cccc(Br)c1` [Compound 41, 4-((3-Bromophenyl)amino)-5-methyl-1H-pyrazole-3-carboxylic Acid], the inhibition at 100 µM was 30 to 60%.
With `Cc1[nH]nc(C(=O)O)c1Nc1ccc(Cc2ccc(OCCOC3CN(C(=O)OC(C)(C)C)C3)cc2)cc1` [Compound 59, 4-((4-(4-(2-((1-(tert-butoxycarbonyl)azetidin-3-yl)oxy)ethoxy)benzyl)phenyl)amino)-5-methyl-1H-pyrazole-3-carboxylic Acid] the figure was below 30%; with `Cc1onc(C(=O)O)c1Cc1ccc(Oc2ccccc2)cc1` [Compound 6, 5-Methyl-4-(4-phenoxybenzyl) isoxazole-3-carboxylic Acid], 30 to 60%; with `O=C(O)c1nnsc1Cc1ccc(F)cc1` [Compound 16, 5-(4-Fluorobenzyl)-1,2,3-thiadiazole-4-carboxylic Acid], below 30%.
The figure for `Cc1[nH]nc(C(=O)O)c1Nc1ccc(Cc2ccc(OCCC3CCN(C(=O)OC(C)(C)C)CC3)cc2)cc1` [Compound 61, 4-((4-(4-(2-(1-(tert-butoxycarbonyl)piperidin-4-yl)ethoxy)benzyl)phenyl)amino)-5-methyl-1H-pyrazole-3-carboxylic Acid] is above 60%; for `O=C(O)c1nnccc1SCc1ccccc1` [Compound 76, 4-(Benzylthio)pyridazine-3-carboxylic Acid] it is below 30%.
As to `O=C(O)c1nnsc1Nc1cccc(-c2ccccn2)c1` [Compound 52, 5-((3-(pyridin-2-yl)phenyl)amino)-1,2,3-thiadiazole-4-carboxylic Acid Na Salt], the inhibition at 100 µM was above 60%.
As to `Cc1snc(C(=O)O)c1Nc1cccc(-c2ccc(C#N)cc2)c1` [Compound 36, 4-((4′-Cyano-[1,1′-biphenyl]-3-yl)amino)-5-methylisothiazole-3-carboxylic Acid], the inhibition at 100 µM is 30 to 60%.
In the case of `N#Cc1ccc(-c2ccc(Cc3snnc3C(=O)O)cc2)cc1` [Compound 14, 5-((4′-Cyano-[1,1′-biphenyl]-4-yl)methyl)-1,2,3-thiadiazole-4-carboxylic Acid], the inhibition at 100 µM was 30 to 60%.
With `O=C(O)c1nnsc1Cc1ccc(Br)cc1` [Compound 15, 5-(4-Bromobenzyl)-1,2,3-thiadiazole-4-carboxylic Acid] the figure was above 60%.
As for `Cc1[nH]nc(C(=O)O)c1Nc1cccc(-c2ccc(C#N)cc2)c1` [Compound 42, 4-((4′-Cyano-[1,1′-biphenyl]-3-yl)amino)-5-methyl-1H-pyrazole-3-carboxylic Acid], the inhibition at 100 µM was 30 to 60%.
As for `Cc1[nH]nc(C(=O)O)c1Cc1ccc(Br)cc1` [Compound 8, 4-(4-Bromobenzyl)-5-methyl-1H-pyrazole-3-carboxylic Acid], the inhibition at 100 µM was below 30%.
As to `O=C(O)c1nnsc1Nc1ccc(F)cc1` [Compound 22, 5-((4-Fluorophenyl)amino)-1,2,3-thiadiazole-4-carboxylic Acid], the inhibition at 100 µM was above 60%.
The figure for `Cc1[nH]nc(C(=O)O)c1Nc1ccc(CCc2ccc(F)cc2)cc1` [Compound 66, 4-((4-(4-Fluorophenethyl)phenyl)amino)-3-methyl-1H-pyrazole-5-carboxylic Acid] is below 30%; for `Cc1snc(C(=O)O)c1Nc1cccc(Br)c1` [Compound 35, 4-((3-Bromophenyl)amino)-5-methylisothiazole-3-carboxylic Acid] it is 30 to 60%; for `O=C(O)c1nnccc1Cc1ccc(F)cc1` [Compound 19, 4-(4-Fluorobenzyl) pyridazine-3-carboxylic Acid] it is 30 to 60%.

The values are drawn from patent US20210171503A1, “GLYCOLATE OXIDASE INHIBITORS AND USE THEREOF” (ORFAN BIOTECH INC., priority 2017, published 2021).
